Source: patent US10634665B2 (priority 2014, dated 2020)

Tested on: BEAS-2B epithelium
Assay: Drug toxicity test in bronchiolar device (LDH release)
Format: cell-based
Settings: 0.1, 1.0 and 10 μM in BEGM medium, recirculating 10 μL/min, 48 hours, bronchiolar device of FIG. 27; FIG. 95A
Description: FIGS. 95A-95D show drug toxicity results obtained from using a bronchiolar device embodiment described herein; FIG. 95A is a graph of camptothecin concentration (μM) vs. cytotoxicity (% LDH release) illustrating the cytotoxicity of camptothecin as measured after having passed through the bronchiolar device; […] show images of fluorescent microbead deposition on a central lumen associated with cells.
Drug toxicity was tested using a bronchiolar device as described herein. A pro-apoptotic anti-cancer drug, camptothecin, was chosen to monitor drug toxicity in the bronchiolar device illustrated in FIG. 27. Different concentrations of camptothecin (0.1, 1.0 and 10 μM) were prepared by diluting the original stock solution (2 mg/mL in DMSO) with BEGM culturing medium. After the lumen of a hollow tube of the device was covered with BEAS-2B epithelium, medium in the medium reservoir (which was connected to a maintaining system) was replaced with individual concentrations of the camptothecin medium solution to allow the circulating flow into medium chamber of device. The tubing connected to hollow tube was closed and the recirculating flow rate was set to 10 μL/min to allow camptothecin to diffuse into the bronchiolar epithelium for 48 hours.

## CC[C@@]1(O)C(=O)OCc2c1cc1n(c2=O)Cc2cc3ccccc3nc2-1 [camptothecin]
  cytotoxicity (% LDH release) versus camptothecin concentration: drug dose dependence was observed
